# Laboratory results: US20160046618A1, “Cyclopropyl Fused Thiazin-2-Amine Compounds as Beta-Secretase Inhibitors and Methods of Use” (AMGEN INC., priority 2014, published 2016)
# Experiments:
# human recombinant BACE1 = human recombinant BACE1 (Homo sapiens (Human), UniProt P56817); assay: In vitro enzymatic BACE1 FRET assay; format: biochemical; settings: read-out: IC50 IP (μM) BACE1 enzyme
# Summary of the method: (§1)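 Fluorescence from cleavage of a quenched peptide spanning the BACE site (50 nM) was read at 488 nm excitation, 590 nm emission. Purified enzyme (Ni-NTA) and compound reacted for one hour before a Tris stop shifted pH to neutral.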
# human recombinant BACE2 = human recombinant BACE2 (Homo sapiens (Human), UniProt Q9Y5Z0); assay: In vitro enzymatic BACE2 FRET assay; format: biochemical; settings: read-out: IC50 IP (μM) BACE2 enzyme
# human recombinant BACE2, sequence (Q9Y5Z0 63-518): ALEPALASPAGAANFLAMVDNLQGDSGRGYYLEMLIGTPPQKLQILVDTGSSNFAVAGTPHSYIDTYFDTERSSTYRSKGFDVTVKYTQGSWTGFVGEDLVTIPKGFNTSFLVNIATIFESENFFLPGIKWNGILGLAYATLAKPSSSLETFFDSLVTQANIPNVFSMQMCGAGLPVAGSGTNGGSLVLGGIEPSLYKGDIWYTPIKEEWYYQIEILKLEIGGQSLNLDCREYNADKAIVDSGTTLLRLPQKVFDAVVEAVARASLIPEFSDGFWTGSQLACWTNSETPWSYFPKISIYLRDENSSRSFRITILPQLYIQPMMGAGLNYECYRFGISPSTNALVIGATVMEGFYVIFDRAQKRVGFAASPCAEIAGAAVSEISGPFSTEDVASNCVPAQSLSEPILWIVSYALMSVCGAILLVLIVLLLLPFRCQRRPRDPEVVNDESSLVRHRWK
# Summary of the method: as §1
# [1] = system: Aβ40 in conditioned medium of cells stably expressing Amyloid Precursor Protein (APP); assay: In vitro BACE-1 cell-based assay (Aβ40 sandwich ELISA); settings: read-out: IC50 IP (μM) BACE1 cell
# Summary of the method: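 Aβ40 in supernatants measured by time-resolved fluorescence sandwich ELISA, with pAb40 as capture and biotin-6E10 as detector antibody, each incubated at 4 °C.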
# Recombinant Cat D = Recombinant Cat D (Homo sapiens (Human), UniProt P07339); assay: In vitro enzymatic Cathepsin D (Cat D) FRET assay; format: biochemical; settings: read-out: IC50 IP (μM) CatD
# Recombinant Cat D, sequence (P07339 65-412): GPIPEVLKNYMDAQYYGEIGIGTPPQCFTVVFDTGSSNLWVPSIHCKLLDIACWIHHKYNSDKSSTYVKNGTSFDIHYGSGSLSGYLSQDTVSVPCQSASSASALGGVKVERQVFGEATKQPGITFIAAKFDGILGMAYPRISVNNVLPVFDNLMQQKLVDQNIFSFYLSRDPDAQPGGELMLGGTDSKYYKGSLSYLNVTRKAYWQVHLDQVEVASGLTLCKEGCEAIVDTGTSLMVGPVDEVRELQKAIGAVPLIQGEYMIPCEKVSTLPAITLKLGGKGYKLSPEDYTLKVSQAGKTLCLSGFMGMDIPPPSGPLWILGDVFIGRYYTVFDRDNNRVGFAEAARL
# Summary of the method: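 CHO-expressed enzyme; buffer 0.05 M citrate pH 3.5, 5 mM CHAPS, 10% DMSO final. Start with FRET substrate 20 nM, 1 h incubation, Tris stop (pH to neutral), fluorescence ex 500 nm/em 580 nm.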
# human recombinant BACE1, sequence (P56817 46-501): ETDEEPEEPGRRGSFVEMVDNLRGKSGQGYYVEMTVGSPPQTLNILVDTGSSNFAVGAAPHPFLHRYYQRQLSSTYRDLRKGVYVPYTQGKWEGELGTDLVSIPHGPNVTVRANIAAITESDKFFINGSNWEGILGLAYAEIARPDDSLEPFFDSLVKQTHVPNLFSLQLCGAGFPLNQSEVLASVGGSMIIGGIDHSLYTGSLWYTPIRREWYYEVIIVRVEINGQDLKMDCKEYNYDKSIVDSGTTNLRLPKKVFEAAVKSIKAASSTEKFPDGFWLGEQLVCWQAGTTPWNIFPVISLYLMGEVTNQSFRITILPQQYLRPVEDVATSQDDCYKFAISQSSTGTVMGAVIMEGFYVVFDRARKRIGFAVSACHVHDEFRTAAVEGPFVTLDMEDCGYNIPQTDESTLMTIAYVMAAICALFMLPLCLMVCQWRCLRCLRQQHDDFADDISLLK
Compound,IC50 (human recombinant BACE1) [µM],IC50 (human recombinant BACE2) [µM],IC50 [1] [µM],IC50 (Recombinant Cat D) [µM]
"Cc1nnc(COc2cnc3c(Nc4cc(F)c(F)c([C@@]5(C)N=C(N)S[C@@]6(C(F)F)C[C@@H]56)c4)nccc3n2)s1 [Example 889, N-(3-((1S,5S,6S)-3-amino-1-(difluoromethyl)-5-methyl-2-thia-4-azabicyclo[4.1.0]hept-3-en-5-yl)-4,5-difluorophenyl)-2-((5-methyl-1,3,4-thiadiazol-2-yl)methoxy)pyrido[3,4-b]pyrazin-5-amine]",0.0418,1.41,0.252,306
"C[C@@H](Oc1cnc2c(Nc3cc(F)c(F)c([C@@]4(C)N=C(N)S[C@@]5(C(F)F)C[C@@H]45)c3)nccc2n1)c1ncco1 [Example 891, N-(3-((1S,5S,6S)-3-amino-1-(difluoromethyl)-5-methyl-2-thia-4-azabicyclo[4.1.0]hept-3-en-5-yl)-4,5-difluorophenyl)-2-((1 R)-1-(1,3-oxazol-2-yl)ethoxy)pyrido[3,4-b]pyrazin-5-amine]",0.177,1.09,2.88,984
"C[C@H](Oc1cnc2c(Nc3cc(F)c(F)c([C@@]4(C)N=C(N)S[C@@]5(C(F)F)C[C@@H]45)c3)nccc2n1)c1ncco1 [Example 892, N-(3-((1S,5S,6S)-3-amino-1-(difluoromethyl)-5-methyl-2-thia-4-azabicyclo[4.1.0]hept-3-en-5-yl)-4,5-difluorophenyl)-2-((1 S)-1-(1,3-oxazol-2-yl)ethoxy)pyrido[3,4-b]pyrazin-5-amine]",0.00278,0.848,0.056,873
"C[C@]1(c2cc(Nc3nccc4nc(OCCN5CCCC5=O)cnc34)cc(F)c2F)N=C(N)S[C@@]2(C(F)F)C[C@@H]12 [Example 893, 1-(2-((5-((3-((1S,5S,6S)-3-amino-1-(difluoromethyl)-5-methyl-2-thia-4-azabicyclo[4.1.0]hept-3-en-5-yl)-4,5-difluorophenyl)amino)pyrido[3,4-b]pyrazin-2-yl)oxy)ethyl)-2-pyrrolidinone]",0.149,3.86,1.66,518
"COC[C@H](C)Oc1cnc2c(Nc3cc(F)c(F)c([C@@]4(C)N=C(N)S[C@@]5(C(F)F)C[C@@H]45)c3)nccc2n1 [Example 894, N-(3-((1S,5S,6S)-3-amino-1-(difluoromethyl)-5-methyl-2-thia-4-azabicyclo[4.1.0]hept-3-en-5-yl)-4,5-difluorophenyl)-2-((1S)-2-methoxy-1-methylethoxy)pyrido[3,4-b]pyrazin-5-amine]",0.00372,0.464,0.05,> 133
"COc1cnc2c(Nc3cc(F)c(F)c([C@@]4(C)N=C(N)S[C@@]5(C(F)F)C[C@@H]45)c3)nccc2n1 [Example 895, N-(3-((1S,5S,6S)-3-amino-1-(difluoromethyl)-5-methyl-2-thia-4-azabicyclo[4.1.0]hept-3-en-5-yl)-4,5-difluorophenyl)-2-methoxypyrido[3,4-b]pyrazin-5-amine]",0.0053,0.0254,0.113,167
"C[C@]1(c2cc(Nc3nccc4[nH]c(=O)cnc34)cc(F)c2F)N=C(N)S[C@@]2(C(F)F)C[C@@H]12 [Example 896, 5-((3-((1S,5S,6S)-3-amino-1-(difluoromethyl)-5-methyl-2-thia-4-azabicyclo[4.1.0]hept-3-en-5-yl)-4,5-difluorophenyl)amino)pyrido[3,4-b]pyrazin-2(1H)-one]",0.018,0.0223,0.135,128
"COc1cnc2c(Nc3cc(F)c(F)c([C@@]4(C)N=C(N)S[C@H]5C[C@H]54)c3)ncnc2c1 [Example 897, N-(3-((1S,5S,6S)-3-amino-5-methyl-2-thia-4-azabicyclo[4.1.0]hept-3-en-5-yl)-4,5-difluorophenyl)-7-methoxypyrido[3,2-d]pyrimidin-4-amine]",0.035,0.184,0.038,1440
"COC(=O)[C@]12C[C@H]1[C@@](C)(c1cc(NC(=O)c3ccc(Cl)cn3)cc(F)c1F)N=C(N)S2 [Example 898, (1S,5S,6S)-methyl 3-amino-5-(5-(5-chloropicolinamido)-2,3-difluorophenyl)-5-methyl-2-thia-4-azabicyclo[4.1.0]hept-3-ene-1-carboxylate]",0.00454,0.00268,0.111,673
"COc1cnc2c(Nc3cc(F)c(F)c([C@@]4(C)N=C(N)S[C@H]5C[C@H]54)c3)nccc2n1 [Example 900, N-(3-((1S,5S,6S)-3-amino-5-methyl-2-thia-4-azabicyclo[4.1.0]hept-3-en-5-yl)-4,5-difluorophenyl)-2-methoxypyrido[3,4-b]pyrazin-5-amine]",0.0324,0.0972,0.195,559
"CON(C)C(=O)[C@]12C[C@H]1[C@@](C)(c1cc(Nc3ncnc4cc(Cl)cnc34)cc(F)c1F)N=C(N)S2 [Example 901, (1S,5S,6S)-3-amino-5-(5-((7-chloropyrido[3,2-d]pyrimidin-4-yl)amino)-2,3-difluorophenyl)-N-methoxy-N,5-dimethyl-2-thia-4-azabicyclo[4.1.0]hept-3-ene-1-carboxamide]",0.00192,0.00203,0.0167,603
"CC(=O)[C@]12C[C@H]1[C@@](C)(c1cc(Nc3ncnc4cc(Cl)cnc34)cc(F)c1F)N=C(N)S2 [Example 902, 1-((1S,5S,6S)-3-amino-5-(5-((7-chloropyrido[3,2-d]pyrimidin-4-yl)amino)-2,3-difluorophenyl)-5-methyl-2-thia-4-azabicyclo[4.1.0]hept-3-en-1-yl)ethanone]",0.0148,0.0125,0.0796,479
"CC#CCOc1cnc2c(Nc3cc(F)c(F)c([C@@]4(C)N=C(N)S[C@@]5(COC)C[C@H]54)c3)nccc2c1 [Example 903, N-(3-((1S,5S,6S)-3-amino-1-(methoxymethyl)-5-methyl-2-thia-4-azabicyclo[4.1.0]hept-3-en-5-yl)-4,5-difluorophenyl)-3-(2-butyn-1-yloxy)-1,7-naphthyridin-8-amine]",0.00195,0.109,0.00785,1220
"CC(=O)[C@]12C[C@H]1[C@@](C)(c1cc(Nc3ncnc4cc(C#N)cnc34)cc(F)c1F)N=C(N)S2 [Example 904, 4-((3-((1S,5S,6S)-1-acetyl-3-amino-5-methyl-2-thia-4-azabicyclo[4.1.0]hept-3-en-5-yl)-4,5-difluorophenyl)amino)pyrido[3,2-d]pyrimidine-7-carbonitrile]",0.0141,0.0355,0.0132,380
"CC(=O)[C@]12C[C@H]1[C@@](C)(c1cc(NC(=O)c3ccc(Cl)cn3)cc(F)c1F)N=C(N)S2 [Example 906, N-(3-((1S,5S,6S)-1-acetyl-3-amino-5-methyl-2-thia-4-azabicyclo[4.1.0]hept-3-en-5-yl)-4,5-difluorophenyl)-5-chloro-2-pyridinecarboxamide]",0.00404,0.00174,0.014,693
"C[C@H](O)[C@]12C[C@H]1[C@@](C)(c1cc(Nc3ncnc4cc(C#N)cnc34)cc(F)c1F)N=C(N)S2 [Example 907, 4-((3-((1S,5S,6S)-3-amino-1-(1-hydroxyethyl)-5-methyl-2-thia-4-azabicyclo[4.1.0]hept-3-en-5-yl)-4,5-difluorophenyl)amino)pyrido[3,2-d]pyrimidine-7-carbonitrile]",0.00747,0.0102,0.00413,381
C[C@@H](O)[C@]12C[C@H]1[C@@](C)(c1cc(Nc3ncnc4cc(C#N)cnc34)cc(F)c1F)N=C(N)S2 [Example 908],0.00801,0.0255,0.00812,360
"CC(C)(O)[C@]12C[C@H]1[C@@](C)(c1cc(Nc3ncnc4cc(C#N)cnc34)cc(F)c1F)N=C(N)S2 [Example 909, 4-((3-((1S,5S,6S)-3-amino-1-(1-hydroxy-1-methylethyl)-5-methyl-2-thia-4-azabicyclo[4.1.0]hept-3-en-5-yl)-4,5-difluorophenyl)amino)pyrido[3,2-d]pyrimidine-7-carbonitrile]",0.0257,0.183,0.0144,6.84
"C#CCOc1cnc2c(Nc3cc(F)c(F)c([C@@]4(C)N=C(N)S[C@@]5(C(=O)N(C)C)C[C@H]54)c3)nccc2n1 [Example 912, (1S,5S,6S)-3-amino-5-(2,3-difluoro-5-((2-(2-propyn-1-yloxy)pyrido[3,4-b]pyrazin-5-yl)amino)phenyl)-N,N,5-trimethyl-2-thia-4-azabicyclo[4.1.0]hept-3-ene-1-carboxamide]",0.000467,0.00101,0.000795,> 400
